Structures can show the parent of a compound that is named as a salt.
How the values were obtained:
[1] = biological target: Rat recombinant PDE10a (rPDE10a) (Rattus norvegicus (Rat), UniProt Q9QYJ6); assay: In vitro assay PDE10a (rat recombinant PDE10a, SPA); assay type: biochemical; details: 60 nM cAMP, 60 min at rt, read-out: rPDE10a2 IC50
Procedure: Rat recombinant PDE10a (rPDE10a) was expressed in Sf9 cells using a recombinant rPDE10a baculovirus construct. Cells were harvested after 48 h of infection and the rPDE10a protein was purified by metal chelate chromatography on Ni-sepharose 6FF. Tested compounds were dissolved and diluted in 100% DMSO to a concentration 100 fold of the final concentration in the assay. Compound dilutions (0.4 μL) were added in 384 well plates to 20 μL of incubation buffer (50 mM Tris pH 7.8, 8.3 mM MgCl2, 1.7 mM EGTA). 10 μL of rPDE10a enzyme in incubation buffer was added and the reaction was started by addition of 10 μL substrate to a final concentration of 60 nM cAMP and 0.008 μCi ^3H-cAMP. The reaction was incubated for 60 min at rt. After incubation, the reaction was stopped with 20 μL of 17.8 mg/mL PDE SPA beads. After sedimentation of the beads during 30 min the radioactivity was measured in a Perkin Elmer Topcount scintillation counter and results were expressed as cpm. For blank values the enzyme was omitted from the reaction and replaced by incubation buffer. Control values were obtained by addition of a final concentration of 1% DMSO instead of compound.

[2] = biological target: Human recombinant PDE10A2 (Homo sapiens (Human), UniProt Q9Y233); assay: In vitro hPDE10a (human recombinant PDE10A2, scintillation proximity assay); assay type: biochemical; details: human recombinant PDE10A2, 60 nM cAMP, 60 min at room temperature; read-out: hPDE10a2 IC50
Chain of Human recombinant PDE10A2 (Q9Y233 267-1055): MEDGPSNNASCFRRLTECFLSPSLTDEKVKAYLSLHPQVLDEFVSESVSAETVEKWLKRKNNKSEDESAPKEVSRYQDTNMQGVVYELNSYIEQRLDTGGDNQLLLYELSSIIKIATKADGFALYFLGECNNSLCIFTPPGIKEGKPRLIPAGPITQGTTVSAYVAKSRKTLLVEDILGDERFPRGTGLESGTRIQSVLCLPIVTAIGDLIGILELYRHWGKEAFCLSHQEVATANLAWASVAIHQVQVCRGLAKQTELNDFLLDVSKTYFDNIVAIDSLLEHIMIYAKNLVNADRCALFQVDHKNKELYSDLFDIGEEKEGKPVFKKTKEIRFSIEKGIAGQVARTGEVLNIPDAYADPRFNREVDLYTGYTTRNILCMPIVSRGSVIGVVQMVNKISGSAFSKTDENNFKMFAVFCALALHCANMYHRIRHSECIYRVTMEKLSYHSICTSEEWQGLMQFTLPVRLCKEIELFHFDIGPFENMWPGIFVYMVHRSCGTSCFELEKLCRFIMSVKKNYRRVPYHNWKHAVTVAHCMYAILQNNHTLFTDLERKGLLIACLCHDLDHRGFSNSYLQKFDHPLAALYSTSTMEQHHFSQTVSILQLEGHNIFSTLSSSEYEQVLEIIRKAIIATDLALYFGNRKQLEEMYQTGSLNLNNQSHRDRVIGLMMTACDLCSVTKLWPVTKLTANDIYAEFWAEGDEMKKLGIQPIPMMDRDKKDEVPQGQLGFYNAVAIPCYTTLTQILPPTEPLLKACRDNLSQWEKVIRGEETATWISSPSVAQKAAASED
Procedure: Human recombinant PDE10A2 was expressed in Sf9 cells, using a recombinant baculovirus construct containing the full length sequence containing a 6×His sequence following the start Met to allow metal affinity purification of the recombinant protein. Cells were harvested and the phosphodiesterase protein was purified by metal chelate chromatography on Ni-sepharose 6FF.
The affinity of the compounds of Formula (I) for phophodiesterases (PDE) was measured by a scintillation proximity assay (SPA). PDE Yttrium Silicate SPA beads allow PDE activity to be measured by direct binding of the primary phosphate groups of non-cyclic AMP or GMP to the beads via a complex iron chelation mechanism. The amount of bound tritiated product ([^3H]-AMP) is measured by liquid scintillation counting.
The compounds were dissolved and diluted in 100% DMSO in polystyrene plates to a concentration of 100-fold the final concentration in the assay. Human PDE10A enzyme solution (10 μL) was added to 20 μL, of incubation buffer (50 mM Tris pH 7.8, 8.3 mM MgCl2, 1.7 mM EGTA), 10 μL, substrate solution consisting of a mixture of non-tritiated and tritiated substrate (60 nM cAMP, 0.008 μCi ^3H-cAMP), and 0.4 μL, compound in 100% DMSO in a 384-well plate, and incubated for 60 min at room temperature. After incubation, the reaction was stopped with 20 μL, of stop solution, consisting of PDE SPA beads (17.8 mg beads/mL in 18 mM zinc sulphate). After sedimentation of the beads for 30 min, the radioactivity was measured in a Perkin Elmer Topcount scintillation counter and results were expressed as cpm. To measure the low control, no enzyme was added to the reaction mixture.
Data were calculated as the percentage of inhibition of total activity measured in the absence of test compound (% control).

Chain of Rat recombinant PDE10a (rPDE10a) (Q9QYJ6 whole entry): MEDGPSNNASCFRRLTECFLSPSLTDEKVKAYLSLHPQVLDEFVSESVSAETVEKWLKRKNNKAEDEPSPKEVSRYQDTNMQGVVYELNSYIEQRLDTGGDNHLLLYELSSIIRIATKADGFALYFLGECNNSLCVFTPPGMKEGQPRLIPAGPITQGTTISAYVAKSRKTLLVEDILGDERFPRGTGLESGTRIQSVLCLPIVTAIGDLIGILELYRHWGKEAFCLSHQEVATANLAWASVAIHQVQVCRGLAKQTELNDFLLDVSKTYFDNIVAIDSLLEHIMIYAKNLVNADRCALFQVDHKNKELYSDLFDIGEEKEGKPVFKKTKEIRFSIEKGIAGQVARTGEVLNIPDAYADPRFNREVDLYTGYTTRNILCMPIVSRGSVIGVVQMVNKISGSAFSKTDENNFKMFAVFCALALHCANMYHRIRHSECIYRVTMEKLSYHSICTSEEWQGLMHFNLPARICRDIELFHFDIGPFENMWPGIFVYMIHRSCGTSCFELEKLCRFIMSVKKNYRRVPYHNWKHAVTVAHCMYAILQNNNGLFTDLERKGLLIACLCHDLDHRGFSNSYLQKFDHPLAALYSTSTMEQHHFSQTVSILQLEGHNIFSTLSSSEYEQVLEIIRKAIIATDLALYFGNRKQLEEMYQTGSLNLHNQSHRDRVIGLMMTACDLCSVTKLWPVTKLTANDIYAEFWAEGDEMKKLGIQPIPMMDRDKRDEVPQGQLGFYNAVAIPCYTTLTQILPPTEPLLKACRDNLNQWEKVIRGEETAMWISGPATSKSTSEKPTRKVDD

Row | Structure (SMILES) | IC50 [1] [nM] | IC50 [2] [nM]
1 | O=C(O)CCC(=O)Nc1ccc(-c2cnc(N3CCOCC3)c3nc(/C=C/c4ccc5ccccc5n4)cn23)cc1 [Cpd 32] | 6 | 12
2 | Cn1nc(-c2ccc(-c3cnc(N4CCOCC4)c4nc(CCc5ccc6ccccc6n5)cn34)cc2)[nH]c1=O [Cpd 33, 1-Methyl-3-[4-[8-(morpholin-4-yl)-2-[2-(quinolin-2-yl)ethyl]imidazo[1,2-a]pyrazin-5-yl]phenyl]-4,5-dihydro-1H-1,2,4-triazol-5-one] | 23 | 21
3 | CC(C)[C@H](NC(=O)c1ccc(-c2cnc(N3CCOCC3)c3nc(CCc4ccc5ccccc5n4)cn23)cc1)C(=O)O [Cpd 34, (S)-3-Methyl-2-(4-(8-morpholino-2-(2-(quinolin-2-yl)ethyl)imidazo[1,2-a]pyrazin-5-yl)benzamido)butanoic acid trifluoroacetic acid salt] | 13 | 5
4 | O=C(O)[C@@H]1CCCN1C(=O)c1ccc(-c2cnc(N3CCOCC3)c3nc(CCc4ccc5ccccc5n4)cn23)cc1 [Cpd 35, (S)-1-(4-(8-Morpholino-2-(2-(quinolin-2-yl)ethyl)imidazo[1,2-a]pyrazin-5-yl)benzoyl)pyrrolidine-2-carboxylic acid trifluoroacetic acid salt] | 12 | 7
5 | c1ccc2nc(CCc3cn4c(-c5ccc(Sc6cnn[nH]6)cc5)cnc(N5CCOCC5)c4n3)ccc2c1 [Cpd 36, 4-(5-(4-((1H-1,2,3-triazol-5-yl)thio)phenyl)-2-(2-(quinolin-2-yl)ethyl)imidazo[1,2-a]pyrazin-8-yl)morpholine] | 23 | 17
6 | O=C(O)CCNC(=O)c1ccc(-c2cnc(N3CCOCC3)c3nc(CCc4ccc5ccccc5n4)cn23)cc1 [Cpd 38, 3-(4-(8-Morpholino-2-(2-(quinolin-2-yl)ethyl)imidazo[1,2-a]pyrazin-5-yl)benzamido)propanoic acid] | 7 | 2
7 | O=C(O)CCNC(=O)c1ccc(-c2cnc(N3CCOCC3)c3nc(/C=C/c4ccc5ccccc5n4)cn23)cc1 [Cpd 39, (E)-3-(4-(8-Morpholino-2-(2-(quinolin-2-yl)vinyl)imidazo[1,2-a]pyrazin-5-yl)benzamido)propanoic acid] | 8 | 5
8 | CS(=O)(=O)NC(=O)Nc1ccc(-c2cnc(N3CCOCC3)c3nc(CCc4ccc5ccccc5n4)cn23)cc1 [Cpd 40, N-((4-(8-Morpholino-2-(2-(quinolin-2-yl)ethyl)imidazo[1,2-a]pyrazin-5-yl)phenyl)carbamoyl)methanesulfonamide] | 20 | 10
9 | COCOc1c(C)cc(-c2cnc(N3CCOCC3)c3nc(/C=C/c4ccc5ccccc5n4)cn23)cc1C [Cpd 41, (E)-4-(5-(4-(methoxymethoxy)-3,5-dimethylphenyl)-2-(2-(quinolin-2-yl)vinyl)imidazo[1,2-a]pyrazin-8-yl)morpholine] | 21 | 19
10 | O=C1NS(=O)(=O)c2ccc(-c3cnc(N4CCOCC4)c4nc(/C=C/c5ccc6ccccc6n5)cn34)cc21 [Cpd 42, (E)-5-(8-Morpholino-2-(2-(quinolin-2-yl)vinyl)imidazo[1,2-a]pyrazin-5-yl)benzo[d]isothiazol-3(2H)-one 1,1-dioxide] | 2 | 1
11 | CN1c2cc(-c3cnc(N4CCOCC4)c4nc(/C=C/c5ccc6ccccc6n5)cn34)ccc2NS1(=O)=O [Cpd 43, (E)-1-Methyl-6-(8-morpholino-2-(2-(quinolin-2-yl)vinyl)imidazo[1,2-a]pyrazin-5-yl)-1,3-dihydrobenzo[c][1,2,5]thiadiazole 2,2-dioxide trifluoroacetic acid salt] | 7 | 3
12 | CC(C)[C@H](NC(=O)c1ccc(-c2cnc(N3CCOCC3)c3nc(/C=C/c4ccc5ccccc5n4)cn23)cc1)C(=O)O [Cpd 44, (S,E)-3-Methyl-2-(4-(8-morpholino-2-(2-(quinolin-2-yl)vinyl)imidazo[1,2-a]pyrazin-5-yl)benzamido)butanoic acid trifluoroacetic acid salt] | 9 | 14
13 | O=C(O)[C@@H]1CCCN1C(=O)c1ccc(-c2cnc(N3CCOCC3)c3nc(/C=C/c4ccc5ccccc5n4)cn23)cc1 [Cpd 45, (S,E)-1-(4-(8-Morpholino-2-(2-(quinolin-2-yl)vinyl)imidazo[1,2-a]pyrazin-5-yl)benzoyl)pyrrolidine-2-carboxylic acid trifluoroacetic acid salt] | 23 | 20
14 | O=C(O)CNC(=O)c1ccc(-c2cnc(N3CCOCC3)c3nc(CCc4ccc5ccccc5n4)cn23)cc1 [Cpd 46, 2-(4-(8-Morpholino-2-(2-(quinolin-2-yl)ethyl)imidazo[1,2-a]pyrazin-5-yl)benzamido)acetic acid] | 4 | 7
15 | Cn1nc(-c2ccc(-c3cnc(N4CCOCC4)c4nc(/C=C/c5ccc6ccccc6n5)cn34)cc2)[nH]c1=O [Cpd 47, (E)-2-Methyl-5-(4-(8-morpholino-2-(2-(quinolin-2-yl)vinyl)imidazo[1,2-a]pyrazin-5-yl)phenyl)-2H-1,2,4-triazol-3(4H)-one] | 15 | 34
16 | O=C1NC(=O)C(c2ccc(-c3cnc(N4CCOCC4)c4nc(/C=C/c5ccc6ccccc6n5)cn34)cc2)O1 (stereo not shown) [Cpd 48, (E)-5-(4-(8-Morpholino-2-(2-(quinolin-2-yl)vinyl)imidazo[1,2-a]pyrazin-5-yl)phenyl)oxazolidine-2,4-dione] | 37 | 11
17 | Cc1cc(S(=O)(=O)NC(C)C)ccc1-c1cnc(N2CCOCC2)c2nc(/C=C/c3ccc4ccccc4n3)cn12 [Cpd 49, (E)-N-isopropyl-3-methyl-4-(8-morpholino-2-(2-(quinolin-2-yl)vinyl)imidazo[1,2-a]pyrazin-5-yl)benzenesulfonamide] | 98 | 155
18 | O=C(O)CNC(=O)c1ccc(-c2cnc(N3CCOCC3)c3nc(/C=C/c4ccc5ccccc5n4)cn23)cc1 [Cpd 50, (E)-2-(4-(8-Morpholino-2-(2-(quinolin-2-yl)vinyl)imidazo[1,2-a]pyrazin-5-yl)benzamido)acetic acid] | 17 | 18
19 | Oc1ncn(-c2ccc(-c3cnc(N4CCOCC4)c4nc(CCc5ccc6ccccc6n5)cn34)cc2)n1 [Cpd 51, 1-(4-(8-Morpholino-2-(2-(quinolin-2-yl)ethyl)imidazo[1,2-a]pyrazin-5-yl)phenyl)-1H-1,2,4-triazol-3-ol] | 5 | 4
20 | O=C1NS(=O)(=O)c2cc(-c3cnc(N4CCOCC4)c4nc(CCc5ccc6ccccc6n5)cn34)ccc21 [Cpd 54, 6-(8-Morpholino-2-(2-(quinolin-2-yl)ethyl)imidazo[1,2-a]pyrazin-5-yl)benzo[d]isothiazol-3(2H)-one 1,1-dioxide trifluoroacetic acid salt] | 1 | 1
21 | O=c1ncn(-c2ccc(-c3cnc(N4CCOCC4)c4nc(/C=C/c5ccc6ccccc6n5)cn34)cc2)[nH]1 [Cpd 56, (E)-1-(4-(8-Morpholino-2-(2-(quinolin-2-yl)vinyl)imidazo[1,2-a]pyrazin-5-yl)phenyl)-1,2-dihydro-1,2,4-triazol-3-one] | 15 | 14
22 | O=C1NC(=O)C(c2ccc(-c3cnc(N4CCOCC4)c4nc(/C=C/c5ccc6ccccc6n5)cn34)cc2)N1 (stereo not shown) [Cpd 57, (E)-5-(4-(8-Morpholino-2-(2-(quinolin-2-yl)vinyl)imidazo[1,2-a]pyrazin-5-yl)phenyl)imidazolidine-2,4-dione 2,2,2-trifluoroacetate] | 48 | 46
23 | O=c1[nH]ncn1-c1ccc(-c2cnc(N3CCOCC3)c3nc(/C=C/c4ccc5ccccc5n4)cn23)cc1 [Cpd 58, (E)-4-(4-(8-morpholino-2-(2-(quinolin-2-yl)vinyl)imidazo[1,2-a]pyrazin-5-yl)phenyl)-1H-1,2,4-triazol-5(4H)-one] | 132 | 91

— patent US9249163B2, “PDE10a inhibitors for the treatment of type II diabetes” (Janssen Pharmaceutica, NV, priority 2013, dated 2016)
